# Source: US20230087118A1, “IMIDAZO[1,2-a][sequence] DERIVATIVES AND THEIR USE IN THE TREATMENT OF DISEASE” (priority 2019, published 2023)
# Where two headings read alike, the source gives them in different places.
# Target: T1, IRAK4 (Homo sapiens, UniProt Q9NWZ3)
# T1 sequence (Q9NWZ3 1-460): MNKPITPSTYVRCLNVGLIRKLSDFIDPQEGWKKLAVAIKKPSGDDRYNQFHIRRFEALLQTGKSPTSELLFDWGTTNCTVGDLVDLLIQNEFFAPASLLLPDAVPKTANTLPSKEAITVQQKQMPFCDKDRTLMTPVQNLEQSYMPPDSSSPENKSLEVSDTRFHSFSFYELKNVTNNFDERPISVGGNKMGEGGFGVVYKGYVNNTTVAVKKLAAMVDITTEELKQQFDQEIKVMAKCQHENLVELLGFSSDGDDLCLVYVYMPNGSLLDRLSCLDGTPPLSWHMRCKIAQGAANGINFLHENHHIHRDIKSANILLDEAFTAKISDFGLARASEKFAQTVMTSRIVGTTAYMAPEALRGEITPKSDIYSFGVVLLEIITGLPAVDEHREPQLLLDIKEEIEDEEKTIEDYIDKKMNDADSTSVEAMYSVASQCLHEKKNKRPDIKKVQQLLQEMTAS
# Experiment: 2-hour 10 μM ATP Biochemical Assay (MesoScale Detection format; IRAK4 phosphorylation of biotin labeled IRAK1 activation loop peptide)
# Procedure: Compounds of the invention were assessed for their ability to inhibit IRAK4 activity. The inhibitory properties of the compounds of the invention described herein can be evidenced by testing in any one of the following assays.
# The 2-hour 10 μM ATP Biochemical Assay employs a MesoScale Detection (MSD) format. The kinase reaction is based on the IRAK4 phosphorylation of a biotin labeled peptide (IRAK1 activation loop sequence 360-389).
# The kinase reaction in 30 μl is carried out in wells of a 384 well polypropylene assay plate, with 0.1 nM IRAK4, 1.6 μM of biotinylated peptide substrate and 10 μM ATP in 50 mM Hepes, pH 7.5, 60 mM NaCl, 5 mM MgCl2, 0.25 mM MnCl2, 2 mM DTT, 0.01% BSA, and 1% DMSO (from compound DMSO stocks), for 2 hour at room temperature. The activity is quenched with 11 μl of 70 mM EDTA, pH 8.
# To detect the phosphorylated biotinylated peptide substrate, 30 μl of the quenched reaction mixture is added to equivalent wells of a 384 well streptavidin coated MesoScale plate (Meso Scale Discovery #L21SA-1). After a 1 hour incubation of the plate for 1 hour at room temperature with gentle mixing, the plate wells are washed 3 times with 50 mM Tris, pH 7.5, 150 mM NaCl, 0.02% Tween-20.
# A 25 μl volume of 1:500 anti-P-Threonine Rabbit polyclonal Antibody plus 1:500 Goat-anti-Rabbit Sulfo Tag Antibody (Meso Scale Discovery R32AB-1) in 50 mM Tris, pH 7.5, 150 mM NaCl, 0.02% Tween-20 plus 2% BSA is then added to each well. After a 1-hour incubation of the plate for 1 hour at room temperature with gentle mixing, the plate wells are washed, 3 times with 50 mM Tris, pH 7.5, 150 mM NaCl, 0.02% Tween-20. A 40 μl volume of 2× MSD Read Buffer (Meso Scale Discovery R92TC-1) is added to each well, and the plate is read immediately in an MSD Plate Reader (Meso Scale Discovery).
# [1] = read-out: IRAK4 Biochemical Assay (10 μM ATP, 2 h) IC50, 0.1 nM IRAK4
IC50 (0.1 nM IRAK4),SMILES,IC50 [1]
412 nM,COc1cc2nc(C3CCOCC3)cn2cc1C(=O)N[C@@H]1C[C@H]1C1CCC1 (racemic) [Example 154],
23 nM,COc1cc2nc(C3CCOCC3)cn2cc1C(=O)Nc1cc(F)cc(F)c1 [Example 152],
46 nM,COc1cc(F)cc(NC(=O)c2cn3cc(C4CCOCC4)nc3cc2OC)c1 [Example 151],
31 nM,COc1cc2nc(CC(C)C#N)cn2cc1C(=O)Nc1cccc(C(F)(F)F)n1 (stereo not drawn) [Example 42],
741 nM,COc1cc2nc(C3CCOCC3)cn2cc1C(=O)N[C@@H]1COC[C@H]1F (racemic) [Example 123],
169 nM,COc1cc2nc(C3CCOCC3)cn2cc1C(=O)Nc1ccc(F)c(F)c1C [Example 181],
16 nM,COc1cc2nc(C3CCOCC3)cn2cc1C(=O)Nc1cccc(F)c1C [Example 129],
70 nM,COc1cc2nc(C3CCOCC3)cn2cc1C(=O)Nc1cccc(OC)c1C [Example 160],
861 nM,COc1cc2nc(C3CCOCC3)cn2cc1C(=O)N[C@@H]1CCC[C@H](C2CC2)C1 (relative stereo) [Example 177],
2 nM,COc1cccc(NC(=O)c2cn3cc(C4CCC(OC)C4)nc3cc2OC)n1 (stereo not drawn) [Example 17],
6 nM,COc1cccc(NC(=O)c2cn3cc(C45CC(C#N)(C4)C5)nc3cc2OC)n1 [Example 19],
79 nM,"COc1cc(C(=O)Nc2cccc(C(F)F)n2)cn2cc(C3(OC)CC3)nc12 [Example 91, N-(6-(difluoromethyl)pyridin-2-yl)-8-methoxy-2-(1-methoxycyclopropyl)imidazo[1,2-a]pyridine-6-carboxamide]",
19 nM,COc1cc2nc(C3CCOCC3)cn2cc1C(=O)Nc1cccc2c1CCOC2 [Example 180],
21 nM,COc1cccc(NC(=O)c2cn3cc(C4CCOCC4)nc3cc2OC)c1 [Example 157],
17 nM,COc1cccc(NC(=O)c2cn3cc(C(C)(C)CC#N)nc3cc2OC)n1 [Example 13],
30 nM,COc1cc2nc(C3CCOCC3)cn2cc1C(=O)Nc1cc(C)cc(F)c1 [Example 176],
,"COc1cccc(NC(=O)c2cn3cc(C[C@H]4CCOC4)nc3cc2OC)n1 [Example 50, (S)-7-methoxy-N-(6-methoxypyridin-2-yl)-2-((tetrahydrofuran-3-yl)methyl)imidazo[1,2-a]pyridine-6-carboxamide]",3 nM
31 nM,COc1cccc(NC(=O)c2cn3cc(CC4COCCO4)nc3cc2OC)n1 (stereo not drawn) [Example 15],
8 nM,COc1cc(C(=O)Nc2cccc(C(F)(F)F)n2)cn2cc(CC3CCOC3)nc12 (stereo not drawn) [Example 72],
57 nM,COc1cc2nc(C3(OC)CC3)cn2cc1C(=O)Nc1cccc(C(F)(F)F)n1 [Example 34],
350 nM,O=C(Nc1ccn(C(F)F)n1)c1ccc2nc(C3CCOCC3)cn2c1 [Example 49],
346 nM,COc1cc2nc(C3CCOCC3)cn2cc1C(=O)N[C@H]1CC[C@@H](OC)CC1 [Example 161],

IC50 (0.1 nM IRAK4),SMILES,IC50 [1]
200 nM,COc1cc2nc(C3CCOCC3)cn2cc1C(=O)Nc1cc(C)cc(C)n1 [Example 127],
73 nM,CCc1ccccc1NC(=O)c1cn2cc(C3CCOCC3)nc2cc1OC [Example 167],
140 nM,COc1cc2nc(C3CCOCC3)cn2cc1C(=O)Nc1cccc2c1C1CCC2O1 (stereo not drawn) [Example 130],
306 nM,COc1cc2nc(C3CCOCC3)cn2cc1C(=O)Nc1cc(C)cc(C)c1OC [Example 166],
19 nM,COc1cc2nc(C3CCOCC3)cn2cc1C(=O)Nc1cccc(C)c1C [Example 153],
822 nM,COc1cc2nc(C3CCOCC3)cn2cc1C(=O)Nc1ccccc1CC(C)C [Example 140],
32 nM,COc1cccc(NC(=O)c2cn3cc(CC(C)C#N)nc3cc2OC)n1 (stereo not drawn) [Example 12],
24 nM,COc1cc2nc(C3CC34CCOC4)cn2cc1C(=O)Nc1cccc(C(F)(F)F)n1 (stereo not drawn) [Example 39],
25 nM,COc1cc2nc(C3CCOCC3)cn2cc1C(=O)Nc1cccnc1C [Example 131],
37 nM,COc1cc2nc(C3CCOCC3)cn2cc1C(=O)Nc1cc(F)c(F)c(C(F)F)c1 [Example 164],
37 nM,COc1cc2nc(C(C)(C)CC#N)cn2cc1C(=O)Nc1cccc(C(F)(F)F)n1 [Example 46],
26 nM,COc1cccc(NC(=O)c2cn3cc(C4(OC)CC4)nc3cc2OC)n1 [Example 14],
1 nM,COc1cccc(NC(=O)c2cn3cc(C4CC5CCC(C4)O5)nc3cc2OC)n1 (stereo not drawn) [Example 18],
132 nM,COc1cc2nc(C3CCOCC3)cn2cc1C(=O)Nc1cc(F)c(F)c(F)c1 [Example 137],
1 nM,CCOc1cc2nc(CCCOC)cn2cc1C(=O)Nc1cccc(C(F)F)n1 [Example 85],
12 nM,COc1cc2nc(C3CCOC3)cn2cc1C(=O)Nc1cccc(C(F)(F)F)n1 (stereo not drawn) [Example 35],
230 nM,COc1cc2nc(C3CCOCC3)cn2cc1C(=O)N[C@@H]1CCCC[C@H]1OC (racemic) [Example 155],
65 nM,COc1cc2nc(C3CCOCC3)cn2cc1C(=O)Nc1cnsc1 [Example 138],
660 nM,COc1cc2nc(C3CCOCC3)cn2cc1C(=O)NC1CCCC2(CC2)C1 (stereo not drawn) [Example 126],
794 nM,COc1cc2nc(C3CCOCC3)cn2cc1C(=O)N[C@@]12CCC[C@@H]1C2 (racemic) [Example 149],
6 nM,COc1cc(C(=O)Nc2cccc(C(F)(F)F)n2)cn2cc(C3CCOCC3)nc12 [Example 75],
20 nM,COc1cc2nc(C3CCOCC3)cn2cc1C(=O)Nc1ccc(F)c(C(F)F)c1 [Example 159],

IC50 (0.1 nM IRAK4),SMILES,IC50 [1]
43 nM,COc1cc2nc(C3CCOCC3)cn2cc1C(=O)Nc1scnc1C [Example 105],
67 nM,CCc1ncc(F)cc1NC(=O)c1cn2cc(C3CCOCC3)nc2cc1OC [Example 128],
792 nM,COc1cc2nc(C3CCOCC3)cn2cc1C(=O)Nc1cc(Cl)c(F)c(Cl)c1 [Example 119],
632 nM,COc1cc2nc(C3CCOCC3)cn2cc1C(=O)NC1CC(C)C1 (stereo not drawn) [Example 134],
23 nM,COc1cc2nc(C3CCOCC3)cn2cc1C(=O)Nc1scnc1C(C)C [Example 150],
944 nM,COc1cc2nc(C3CCOCC3)cn2cc1C(=O)NC1CC(OC)c2ccccc21 (stereo not drawn) [Example 136],
,"COc1cccc(NC(=O)c2cn3cc(C[C@@H]4CCOC4)nc3cc2OC)n1 [Example 51, (R)-7-methoxy-N-(6-methoxypyridin-2-yl)-2-((tetrahydrofuran-3-yl)methyl)imidazo[1,2-a]pyridine-6-carboxamide]",3 nM
744 nM,COc1cc2nc(C3CCOCC3)cn2cc1C(=O)NC1CCCC(C)C1C (stereo not drawn) [Example 175],
34 nM,COc1cc2nc(C3CCOCC3)cn2cc1C(=O)Nc1cc(F)ccn1 [Example 132],
80 nM,COc1cc2nc(C3CCOCC3)cn2cc1C(=O)Nc1cc(F)ccc1OC(C)C [Example 106],
24 nM,COc1cc2nc(C3CCOCC3)cn2cc1C(=O)Nc1cccc(F)c1 [Example 165],
92 nM,COc1cccc(NC(=O)c2ccc3nc(C4CCOCC4)cn3c2)n1 [Example 47],
18 nM,COc1cc2nc(C3CCOCC3)cn2cc1C(=O)Nc1cc(F)cc(F)c1F [Example 120],
25 nM,COc1cccc(NC(=O)c2cn3cc(C4CCOC4)nc3cc2OC)n1 (stereo not drawn) [Example 23],
845 nM,COc1cc2nc(C3CCOCC3)cn2cc1C(=O)Nc1nc(C)c(Cl)s1 [Example 171],
255 nM,COc1cc2nc(C3CCOCC3)cn2cc1C(=O)Nc1cc(Cl)cc(Cl)c1 [Example 133],
122 nM,COc1cc2nc(C3CCOCC3)cn2cc1C(=O)NC1C2CCOC2C12CCC2 (stereo not drawn) [Example 124],
725 nM,COc1cc2nc(C3CCOCC3)cn2cc1C(=O)NC1CCCC(F)C1 (stereo not drawn) [Example 139],
567 nM,COc1cc2nc(C3CCOCC3)cn2cc1C(=O)NC1CCCC2C1C2(F)F (stereo not drawn) [Example 117],
87 nM,COc1cc2nc(C3CCOCC3)cn2cc1C(=O)Nc1cccnc1C1CC1 [Example 148],
21 nM,COc1cc2nc(C3CCOCC3)cn2cc1C(=O)Nc1cc(F)cc(Cl)c1 [Example 172],
305 nM,COc1cc2nc(C3CCOCC3)cn2cc1C(=O)Nc1cc(C)cc(C)c1 [Example 178],
